Assay results from patent publication US4322348A, “Maytansinoids” (Takeda Chemical Industries, Ltd., priority 1979, dated 1982).
≈ marks a conversion by molar mass, not a printed value.

Columns and labels:
[1] = test system: Klebsiella pneumoniae; assay: growth inhibition, paper disc method, trypticase soy agar; type: cell-based; conditions: 8 mm disc, 0.02 ml of a 300 μg/ml solution
Description: (§1) The growth inhibitory activity of the compounds against the test organisms is assayed by the paper disc method using a trypticase soy agar (manufactured by Baltimore Biologicals Laboratories, U.S.A.) as the assay medium. That is, the growth inhibitory activity is determined on the plate medium containing the following test organisms using a paper disc (manufactured by Toyo Seisakusho Co. Ltd., thin type, 8 mm in diameter) impregnated with 0.02 ml of a 300 μg/ml solution of C-15003PND-1, PND-2, PND-3 or PND-4.

[2] = test system: Staphylococcus aureus; assay: as above; type: cell-based; conditions: 8 mm disc, 0.02 ml of a 300 μg/ml solution
Description: as §1

[3] = test system: Proteus vulgaris; assay: as above; type: cell-based; conditions: 8 mm disc, 0.02 ml of a 300 μg/ml solution
Description: as §1

[4] = test system: Mycobacterium avium; assay: as above; type: cell-based; conditions: 8 mm disc, 0.02 ml of a 300 μg/ml solution
Description: as §1

[5] = test system: Serratia marcescens; assay: as above; type: cell-based; conditions: 8 mm disc, 0.02 ml of a 300 μg/ml solution
Description: as §1

[6] = test system: Bacillus subtillis; assay: as above; type: cell-based; conditions: 8 mm disc, 0.02 ml of a 300 μg/ml solution
Description: as §1

[7] = test system: Escherichia coli; assay: as above; type: cell-based; conditions: 8 mm disc, 0.02 ml of a 300 μg/ml solution
Description: as §1

[8] = test system: Bacillus cereus; assay: as above; type: cell-based; conditions: 8 mm disc, 0.02 ml of a 300 μg/ml solution
Description: as §1

[9] = test system: Proteus mirabilis; assay: as above; type: cell-based; conditions: 8 mm disc, 0.02 ml of a 300 μg/ml solution
Description: as §1

[10] = test system: Pseudomonas aeruginosa; assay: as above; type: cell-based; conditions: 8 mm disc, 0.02 ml of a 300 μg/ml solution
Description: as §1

[11] = test system: Tetrahymena pyriformis W; assay: growth inhibition, liquid dilution method; type: cell-based; conditions: 28° C., 44 to 48 hours, pH 7.0, read-out: concentration at which the growth of the test organism is inhibited
Description: Further, the growth inhibitory activity of these antibiotics is determined by the liquid dilution method using a medium [20 g of proteose peptone (Difco Co.), 1 g of yeast extract, 2 g of glucose, 1000 ml of distilled water, 10 ml of 1 M phosphate buffer pH 7.0] and Tetrahymena pyriformis W as a test organism with incubation at 28° C. for 44 to 48 hours. As a result, the growth of the above test organism is found to be inhibited at a concentration of 8 μg/ml of C-15003PND-1, 4 μg/ml of C-15003PND-2, 2 μg/ml of C-15003PND-3 and 1 μg/ml of C-15003PND-4.

[12] = acute toxicity test in mice; type: in vivo; conditions: intraperitoneal
[13] = solubility; type: physicochemical
[14] = test system: Hamigera avellanea IFO 7721; assay: growth inhibition, paper disc method, agar plate; type: cell-based; conditions: IFO7721, 8 mm disc, 0.02 ml of a 100 μg/ml solution, pH 7.0, read-out: inhibitory zones
Description: Also, the compounds are assayed by the paper disc method using an agar plate [3.5 g of disodiumhydrogen phosphate, 0.5 g of potassium dihydrogen phosphate, 5 g of yeast extract (manufactured by Difco Co.), 10 g of glucose, 15 g of agar, 1000 ml of distilled water, pH 7.0] as a medium for assay and Hamigera avellanea IFO 7721 as a test organism. Thus, the growth inhibitory activity is determined on the plate medium containing the test organism using a paper disc (Toyo Seisakusho Co. Japan, thin type, 8 mm in diameter) impregnated with 0.02 ml of a 100 μg/ml solution of C-15003PND-1, PND-2, PND-3 or PND-4. As a result, C-15003PND-1, PND-2, PND-3 and PND-4 show inhibitory zones of 28 mm, 30 mm, 34 mm and 36 mm, respectively.

[15] = test system: tumor cells leukemia P388; assay: antitumor activity, therapeutic effect on leukemia P388 in mice; type: in vivo; conditions: 1×10^6 cells/mouse i.p.; compound i.p. for 9 consecutive days
Description: The therapeutic effects of C-15003PND-1, PND-2, PND-3 and PND-4 on tumor cells leukemia P388 (1×10^6 cells/mouse, transplanted intraperitoneally) are determined by administering the compound intraperitoneally for 9 consecutive days.

[16] = in chloroform, ethyl acetate, acetone, ethanol, methanol, pyridine, tetrahydrofuran, dimethyl sulfoxide
[17] = in petroleum ether, n-hexane, water

SMILES	growth inhibitory activity [1]	growth inhibitory activity [2]	growth inhibitory activity [3]	growth inhibitory activity [4]	growth inhibitory activity [5]	growth inhibitory activity [6]	growth inhibitory activity [7]	growth inhibitory activity [8]	growth inhibitory activity [9]	growth inhibitory activity [10]	MIC [11] [µg/mL]	estimated LD0 [12] [mg/kg]	estimated LD100 [12] [mg/kg]	Solubility [13, 16]	Solubility [13, 17]	zone of inhibition at 100 µg/mL [14] [mm]	life-prolonging effect [15]	Solubility ([13]; in chloroform, ethyl acetate, acetone, ethanol, pyridine, tetrahydrofuran, dimethyl sulfoxide)
COc1cc2cc(c1Cl)NC(=O)CC(OC(=O)CC(C)C)C1(C)OC1C(C)C1CC(O)(NC(=O)O1)C(OC)C=CC=C(C)C2 (stereo not shown) [C-15003PND-4]	do not show any activity	do not show any activity	do not show any activity	do not show any activity	do not show any activity	do not show any activity	do not show any activity	do not show any activity	do not show any activity	do not show any activity	1 (≈ 1.57 µM)	0.313	2.5	Soluble	Insoluble	36	a life-prolonging effect	
COc1cc2cc(c1Cl)NC(=O)CC(OC(=O)C(C)C)C1(C)OC1C(C)C1CC(O)(NC(=O)O1)C(OC)C=CC=C(C)C2 (stereo not shown) [C-15003PND-3]	do not show any activity	do not show any activity	do not show any activity	do not show any activity	do not show any activity	do not show any activity	do not show any activity	do not show any activity	do not show any activity	do not show any activity	2 (≈ 3.22 µM)	0.313	2.5	Soluble	Insoluble	34	a life-prolonging effect	
CCC(=O)OC1CC(=O)Nc2cc(cc(OC)c2Cl)CC(C)=CC=CC(OC)C2(O)CC(OC(=O)N2)C(C)C2OC12C (stereo not shown) [C-15003PND-2]	do not show any activity	do not show any activity	do not show any activity	do not show any activity	do not show any activity	do not show any activity	do not show any activity	do not show any activity	do not show any activity	do not show any activity	4 (≈ 6.59 µM)	0.313	2.5	Soluble	Insoluble	30	a life-prolonging effect	
COc1cc2cc(c1Cl)NC(=O)CC(O)C1(C)OC1C(C)C1CC(O)(NC(=O)O1)C(OC)C=CC=C(C)C2 (stereo not shown) [C-15003PND-0]															Insoluble			Soluble
COc1cc2cc(c1Cl)NC(=O)CC(OC(C)=O)C1(C)OC1C(C)C1CC(O)(NC(=O)O1)C(OC)C=CC=C(C)C2 (stereo not shown) [C-15003PND-1]	do not show any activity	do not show any activity	do not show any activity	do not show any activity	do not show any activity	do not show any activity	do not show any activity	do not show any activity	do not show any activity	do not show any activity	8 (≈ 13.5 µM)	0.313	2.5	Soluble	Insoluble	28	a life-prolonging effect	
